According to PMC8093860, “Anti-Hyperuricemic and Nephroprotective Effects of Dihydroberberine in Potassium Oxonate- and Hypoxanthine-Induced Hyperuricemic Mice” (Frontiers in Pharmacology, 2021):

Target: T1, Xanthine oxidase (XOD) (Bos taurus, UniProt P80457)
T1 construct: gene XDH
Test: spectrophotometric XOD inhibition assay at […] nm with xanthine substrate, cow milk enzyme
Assay type: biochemical

T1 sequence (P80457 2-1332): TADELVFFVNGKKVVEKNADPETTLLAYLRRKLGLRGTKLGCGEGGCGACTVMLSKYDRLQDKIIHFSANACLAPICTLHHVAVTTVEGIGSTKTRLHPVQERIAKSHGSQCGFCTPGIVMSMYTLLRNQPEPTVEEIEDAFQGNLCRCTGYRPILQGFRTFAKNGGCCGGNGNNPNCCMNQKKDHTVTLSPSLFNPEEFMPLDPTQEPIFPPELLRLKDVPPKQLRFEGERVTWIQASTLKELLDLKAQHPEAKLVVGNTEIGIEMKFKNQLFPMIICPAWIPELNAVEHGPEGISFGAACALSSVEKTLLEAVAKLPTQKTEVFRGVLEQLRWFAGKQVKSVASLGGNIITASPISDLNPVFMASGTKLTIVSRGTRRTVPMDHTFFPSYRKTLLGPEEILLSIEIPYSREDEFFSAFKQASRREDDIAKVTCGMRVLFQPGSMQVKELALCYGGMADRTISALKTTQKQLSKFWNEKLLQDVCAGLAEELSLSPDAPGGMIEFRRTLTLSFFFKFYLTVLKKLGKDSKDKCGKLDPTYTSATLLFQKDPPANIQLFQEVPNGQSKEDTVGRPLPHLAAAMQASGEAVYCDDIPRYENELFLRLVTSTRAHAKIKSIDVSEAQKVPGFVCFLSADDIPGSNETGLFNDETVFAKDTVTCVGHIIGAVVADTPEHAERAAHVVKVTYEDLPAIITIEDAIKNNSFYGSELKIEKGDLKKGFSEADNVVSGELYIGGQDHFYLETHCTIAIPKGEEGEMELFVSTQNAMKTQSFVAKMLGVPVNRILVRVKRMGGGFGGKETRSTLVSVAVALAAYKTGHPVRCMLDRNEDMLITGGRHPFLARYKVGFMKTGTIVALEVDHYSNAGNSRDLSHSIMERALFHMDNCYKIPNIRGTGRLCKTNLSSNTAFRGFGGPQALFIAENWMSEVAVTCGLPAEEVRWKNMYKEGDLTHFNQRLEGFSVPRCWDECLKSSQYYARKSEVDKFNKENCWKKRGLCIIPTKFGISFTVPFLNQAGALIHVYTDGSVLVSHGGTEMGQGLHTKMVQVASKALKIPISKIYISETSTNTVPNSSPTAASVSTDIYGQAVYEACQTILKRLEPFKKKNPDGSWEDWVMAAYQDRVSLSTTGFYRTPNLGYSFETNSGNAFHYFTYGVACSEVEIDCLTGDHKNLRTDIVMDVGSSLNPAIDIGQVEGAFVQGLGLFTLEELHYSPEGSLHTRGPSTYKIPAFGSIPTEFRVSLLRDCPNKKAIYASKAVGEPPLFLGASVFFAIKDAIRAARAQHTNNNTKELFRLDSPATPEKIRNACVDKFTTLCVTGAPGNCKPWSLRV

COc1ccc2c(c1OC)CN1CCc3cc4c(cc3C1=C2)OCO4 [DHB, Dihydroberberine]
IC50: 34.4 ± 2.84 µM
